Results from US5798362A, “Quinazolinyl-amino derivatives having α-antagonist activity” (Recordati S.A. Chemical and Pharmaceutical Company, priority 1994, dated 1998).
Where a name gives a salt, the structure may show the parent alone. Read-outs that look alike come from different tables or passages of the source. Blank lines part the entries; values can stand above or below the compound they belong to.

Experiments:
[1] = biological target: α1-receptors ([3H]prazosin); test: [3H]Prazosin binding (α1-receptors), rat cerebral cortices; details: rat cerebral cortex, 0.35 nM [3H]prazosin, 25° C., 30 min; read-out: [3H] prazosine IC50
Method: Rat cerebral cortices were homogenized in 50 volumes of original wet weight of ice-cold 50 mM Tris-HCl buffer pH 7.4. The homogenates were centrifuged at 48,000 × g for 10 minutes, and the pellets were resuspended in the same volume of ice-cold buffer, centrifuged and resuspended two more times. […] The incubations were terminated by rapid filtration through Whatman GF/B, filters using a Brandel cell harvester and the filters were washed with 3×3 ml of ice-cold buffer. The radioactivity retained on the filters was determined by liquid scintillation counting. Data analysis The inhibition of specific binding of the radioligands by the tested drugs was analyzed to estimate the IC50 value by using the non-linear curve-fitting program Allfit [A. De Lean et al., Am. J. Physiol.

in vivo = details: mouse, mice, mortality 7 days after administration
Method: 20-30 g b.w., were obtained from Charles River, Italy. Animals were housed with free access to food and water and maintained on forced light-dark cycle at 22°-24° C. until the day of experiments.
The acute toxicity of synthesized compounds was evaluated in female Albino Swiss mice after intraperitoneal and oral administration. Four logarithmic scaled doses of the compounds were dissolved or suspended in 0.5% Methocel and administered in a volume of 10 ml/kg to groups of 4 mice/dose. Mortality was recorded 7 days after the administration.

[2] = ip, intraperitoneal, read-out: DL50 i.p.

SMILES: COc1cc2nc(N3CCN(Cc4ccccc4)CC3)nc(N)c2cc1OC [Example 1, 4-Amino-6,7-dimethoxy-2-(4-benzyl-1-piperazinyl)-guinazoline bihydrochloride hemihydrate]
IC50 [1]: 0.032 µM
LD50 at 168 h (in vivo; [2]): 76 mg/kg
LD50 at 168 h (in vivo; oral, read-out: DL50 p.o.): 301 mg/kg

IC50 [1]: 0.04 µM
SMILES: COc1cc2nc(N3CCN(C(c4ccccc4)c4ccccc4)CC3)nc(N)c2cc1OC [Example 2, 4-Amino-6,7-dimethoxy-2-(4-diphenylmethyl-1-piperazinyl)-guinazoline bihydrochloride emihydrate]

SMILES: COc1cc2nc(N3CCN(C(=O)C(c4ccccc4)c4ccccc4)CC3)nc(N)c2cc1OC [Example 3, 4-Amino-6,7-dimethoxy-2-[4-(2,2-diphenylacetyl)-1-piperazinyl]-quinazoline hydrochloride . 0.75 H2 O]
IC50 [1]: 0.005 µM
LD50 at 168 h (in vivo; [2]): 112 mg/kg
LD50 at 168 h (in vivo; oral, read-out: DL50 p.o.): 868 mg/kg

SMILES: COc1cc2nc(N3CCN(C(=O)CC(c4ccccc4)c4ccccc4)CC3)nc(N)c2cc1OC [Example 4, 4-Amino-6,7-dimethoxy-2-[4-(3,3-diphenylpropionyl)-1-piperazinyl]-guinazoline hydrochloride]
IC50 [1]: 0.003 µM
LD50 at 168 h (in vivo; [2]): 97 mg/kg
LD50 at 168 h (in vivo; oral, read-out: DL50 p.o.): > 3000 mg/kg

SMILES: COc1cc2nc(N3CCN(C(=O)CCNC(=O)OCc4ccccc4)CC3)nc(N)c2cc1OC [Example 5, 4-Amino-6,7-dimethoxy-2-{4-[(3-benzyloxycarbonylamino)propionyl]-1-piperazinyl}-quinazoline hydrochloride emihydrate]
IC50 [1]: 0.283 µM
LD50 at 168 h (in vivo; [2]): 300 mg/kg
LD50 at 168 h (in vivo; oral, read-out: DL50 p.o.): > 3000 mg/kg

SMILES: COc1cc2nc(N3CCN(C(=O)CCCNC(=O)OCc4ccccc4)CC3)nc(N)c2cc1OC [Example 6, 4-Amino-6,7-dimethoxy-2-{4-[(4-benzyloxycarbonylamino)butirryl]-1-piperazinyl}-quinazoline hydrochloride . 1.5 H2 O]
IC50 [1]: 0.029 µM
LD50 at 168 h (in vivo; [2]): > 1000 mg/kg
LD50 at 168 h (in vivo; oral, read-out: DL50 p.o.): > 3000 mg/kg

SMILES: COc1cc2nc(N3CCN(C(=O)CCN)CC3)nc(N)c2cc1OC [Example 7, 4-Amino-6,7-dimethoxy-2-[4-(3-aminopropionyl)-1-piperazinyl]-guinazoline dihydrobromide . 1.75 H2 O]
IC50 [1]: 0.048 µM
LD50 at 168 h (in vivo; [2]): 187 mg/kg
LD50 at 168 h (in vivo; oral, read-out: DL50 p.o.): > 3000 mg/kg

SMILES: COc1cc2nc(N3CCN(C(=O)CCCN)CC3)nc(N)c2cc1OC [Example 8, 4-Amino-6,7-dimethoxy-2-[4-(4-aminobutirryl)-1-piperazinyl]-guinazoline dihydrobromide . 0.25 H2 O]
IC50 [1]: 0.047 µM
LD50 at 168 h (in vivo; [2]): 219 mg/kg
LD50 at 168 h (in vivo; oral, read-out: DL50 p.o.): > 3000 mg/kg

SMILES: COc1cc2nc(N3CCN(C(=O)CCCNS(C)(=O)=O)CC3)nc(N)c2cc1OC [Example 9, 4-Amino-6,7-dimethoxy-2-{4-[(4-methylsulfonylamino)butirry]-1-piperazinyl}-quinazoline hydrochloride]
IC50 [1]: 0.086 µM
LD50 at 168 h (in vivo; [2]): > 500 mg/kg

SMILES: COc1cc2nc(N3CCN(C(=O)NCCN(C)C)CC3)nc(N)c2cc1OC.Cl.Cl.O.O.O.O [Example 10, 4-Amino-6,7-dimethoxy-2-{4-[(2-dimethylaminoethyl)amino-carbonyl]-1-piperazinyl}-quinazoline dihydrochloride tetrahydrate]
IC50 [1]: 0.055 µM
LD50 at 168 h (in vivo; [2]): 23 mg/kg
LD50 at 168 h (in vivo; oral, read-out: DL50 p.o.): 1350 mg/kg

SMILES: COc1cc2nc(N3CCN(C(=O)CNC(=O)OCc4ccccc4)CC3)nc(N)c2cc1OC.Cl [Example 11, 4-Amino-6,7-dimethoxy-2-{4-[2-(benzyloxycarbonylamino)-acetyl]-1-piperazinyl}-quinazoline hydrochloride]
IC50 [1]: 0.061 µM
LD50 at 168 h (in vivo; [2]): > 1000 mg/kg
LD50 at 168 h (in vivo; oral, read-out: DL50 p.o.): > 3000 mg/kg

SMILES: COc1cc2nc(N3CCN(C(=O)CNC(=O)CNC(=O)OCc4ccccc4)CC3)nc(N)c2cc1OC [Example 12, 4-Amino-6,7-dimethoxy-2-{4-[2-[2-(benzyloxycarbonylamino)-acetylamino]acetyl]-1-piperazinyl}-quinazoline hydrochloride hemihydrate]
IC50 [1]: 0.029 µM
LD50 at 168 h (in vivo; [2]): 1130 mg/kg
LD50 at 168 h (in vivo; oral, read-out: DL50 p.o.): > 2000 mg/kg

SMILES: COc1cc2nc(N3CCN(C(=O)CC(O)c4ccccc4)CC3)nc(N)c2cc1OC (stereo not drawn) [Example 14, 4-Amino-6,7-dimethoxy-2-[4-(3-hydroxy-3-phenylpropionyl)-1-piperazinyl]-quinazoline]
IC50 [1]: 0.019 µM
LD50 at 168 h (in vivo; [2]): > 1000 mg/kg
LD50 at 168 h (in vivo; oral, read-out: DL50 p.o.): > 3000 mg/kg

SMILES: COc1cc2nc(N3CCN(C(=O)CCC(=O)c4ccccc4)CC3)nc(N)c2cc1OC.Cl.O [Example 15, 4-Amino-6,7-dimethoxy-2-{4-[(3-benzoyl)propionyl]-1-piperazinyl}-quinazoline hydrochloride hydrate]
IC50 [1]: 0.015 µM
LD50 at 168 h (in vivo; [2]): > 1000 mg/kg
LD50 at 168 h (in vivo; oral, read-out: DL50 p.o.): > 3000 mg/kg

SMILES: COc1cc2nc(N3CCN(C(=O)CCC(O)c4ccccc4)CC3)nc(N)c2cc1OC (stereo not drawn) [Example 16, 4-Amino-6,7-dimethoxy-2-[4-(4-phenyl-4-hydroxybutirryl)-1-piperazinyl]-quinazoline maleate (1:1)]
IC50 [1]: 0.017 µM
LD50 at 168 h (in vivo; [2]): 253 mg/kg
LD50 at 168 h (in vivo; oral, read-out: DL50 p.o.): > 3000 mg/kg

IC50 [1]: 0.105 µM
SMILES: COc1cc2nc(N3CCN(C(=O)CC(N)=O)CC3)nc(N)c2cc1OC [Example 17, 4-Amino-6,7-dimethoxy-2-[4-(3-oxo-3-aminopropionyl)-1-piperazinyl]-quinazoline hydrochloride hydrate]

SMILES: CCOC(=O)CC(=O)N1CCN(c2nc(N)c3cc(OC)c(OC)cc3n2)CC1.Cl [Example 18, 4-Amino-6,7-dimethoxy-2-[4-(2-ethoxycarbonylacetyl)-1-piperazinyl]-quinazoline hydrochloride]
IC50 [1]: 0.054 µM
LD50 at 168 h (in vivo; [2]): > 1000 mg/kg
LD50 at 168 h (in vivo; oral, read-out: DL50 p.o.): > 3000 mg/kg

SMILES: CCCCNC(=O)CC(=O)N1CCN(c2nc(N)c3cc(OC)c(OC)cc3n2)CC1.Cl [Example 19, 4-Amino-6,7-dimethoxy-2-[4-(3-n-butylamino-3-oxopropionyl)-1-piperazinyl]-quinazoline hydrochloride]
IC50 [1]: 0.096 µM
LD50 at 168 h (in vivo; [2]): 459 mg/kg
LD50 at 168 h (in vivo; oral, read-out: DL50 p.o.): > 2000 mg/kg

IC50 [1]: 0.067 µM
SMILES: COc1cc2nc(N3CCN(C(=O)CC(=O)Nc4ccccc4)CC3)nc(N)c2cc1OC [Example 20, 4-Amino-6,7-dimethoxy-2-[4-(phenylaminocarbonylacetyl)-1-piperazinyl]-quinazoline hydrochloride hemihydrate]

SMILES: COc1cc2nc(N3CCN(C(=O)C(C)(C)Oc4ccccc4)CC3)nc(N)c2cc1OC [Example 21, 4-Amino-6,7-dimethoxy-2-[4-(2-phenoxy-2-methylpropionyl)-1-piperazinyl]-quinazoline hydrochloride . 1.5 H2 O]
IC50 [1]: 0.099 µM
LD50 at 168 h (in vivo; [2]): 206 mg/kg
LD50 at 168 h (in vivo; oral, read-out: DL50 p.o.): > 1700 mg/kg

SMILES: COc1cc2nc(N3CCN(C(=O)C(C)(C)Oc4ccccc4OC)CC3)nc(N)c2cc1OC.Cl [Example 22, 4-Amino-6,7-dimethoxy-2-{4-[2-(2-methoxyphenoxy)-2-methylpropionyl]-1-piperazinyl}-quinazoline hydrochloride]
IC50 [1]: 0.049 µM
LD50 at 168 h (in vivo; [2]): 435 mg/kg
LD50 at 168 h (in vivo; oral, read-out: DL50 p.o.): > 3000 mg/kg

SMILES: COc1cc2nc(N3CCN(C(=O)COc4ccccc4OC)CC3)nc(N)c2cc1OC.Cl [Example 23, 4-Amino-6,7-dimethoxy-2-[4-(2-methoxyphenoxyacetyl)-1-piperazinyl]-quinazoline hydrochloride]
LD50 at 168 h (in vivo; [2]): 337 mg/kg
LD50 at 168 h (in vivo; oral, read-out: DL50 p.o.): > 2000 mg/kg

SMILES: COc1cc2nc(N3CCN(C(=O)COc4cc(C)ccc4C(C)C)CC3)nc(N)c2cc1OC [Example 25, 4-Amino-6,7-dimethoxy-2-{4-[(2-isopropyl-5-methylphenoxy)acetyl]-1-piperazinyl}-quinazoline hydrochloride . 0.25 H2 O]
IC50 [1]: 0.157 µM
LD50 at 168 h (in vivo; [2]): 346 mg/kg
LD50 at 168 h (in vivo; oral, read-out: DL50 p.o.): > 3000 mg/kg

SMILES: COc1cc2nc(N3CCN(C(=O)C(C)Oc4c(OC)cccc4C(C)C)CC3)nc(N)c2cc1OC.Cl (stereo not drawn) [Example 26, 4-Amino-6,7-dimethoxy-2-{4-[2-(2-methoxy-6-isopropylphenoxy)propionyl]-1-piperazinyl}-quinazoline hydrochloride]
IC50 [1]: 0.123 µM
LD50 at 168 h (in vivo; [2]): 115 mg/kg
LD50 at 168 h (in vivo; oral, read-out: DL50 p.o.): 1960 mg/kg

IC50 [1]: 0.006 µM
SMILES: COc1cc2nc(N3CCN(C(=O)COc4c(OC)cccc4OC)CC3)nc(N)c2cc1OC [Example 27, 4-Amino-6,7-dimethoxy-2-[4-(2,6-dimethoxyphenoxy)acetyl-1-piperazinyl]-quinazoline hydrochloride . 0.25 H2 O]

SMILES: COc1cc2nc(N(C)Cc3ccccc3)nc(N)c2cc1OC [Example 28, 4-Amino-6,7-dimethoxy-2-(N-benzyl-N-methylamino)-guinazoline hydrochloride]
IC50 [1]: 0.07 µM
LD50 at 168 h (in vivo; [2]): 89 mg/kg
LD50 at 168 h (in vivo; oral, read-out: DL50 p.o.): 293 mg/kg

SMILES: COc1cc2nc(N(C)CCC(c3ccccc3)c3ccccc3)nc(N)c2cc1OC [Example 29, 4-Amino-6,7-dimethoxy-2-(N-methyl-3,3-diphenylpropylamino)-guinazoline hydrochloride]
IC50 [1]: 0.085 µM
LD50 at 168 h (in vivo; [2]): 163 mg/kg
LD50 at 168 h (in vivo; oral, read-out: DL50 p.o.): > 2000 mg/kg

IC50 [1]: 0.005 µM
SMILES: COc1cc2nc(N3CCc4c(ccc5ccccc45)C3)nc(N)c2cc1OC [Example 30, 4-Amino-6,7-dimethoxy-2-(1,2,3,4-tetrahydrobenzo[f]isoquinolin-2-yl)-quinazoline . 0.25 ethanole]
